Results published in ChEMBL document CHEMBL5154691, “Discovery of novel verinurad analogs as dual inhibitors of URAT1 and GLUT9 with improved Druggability for the treatment of hyperuricemia” (Eur J Med Chem, 2022).

What was measured:
[1] = molecular target: T1, Solute carrier family 22 member 6 (Homo sapiens, UniProt Q4U2R8); assay: Inhibition of OAT1 (unknown origin) expressed in HEK293 cells assessed as inhibition of 6-CFL uptake preincubated for 30 mins followed by incubation with 6-CFL and measured after 15 mins by fluorescence based analysis; assay type: toxicity, cell-based
T1 sequence (Q4U2R8 whole entry): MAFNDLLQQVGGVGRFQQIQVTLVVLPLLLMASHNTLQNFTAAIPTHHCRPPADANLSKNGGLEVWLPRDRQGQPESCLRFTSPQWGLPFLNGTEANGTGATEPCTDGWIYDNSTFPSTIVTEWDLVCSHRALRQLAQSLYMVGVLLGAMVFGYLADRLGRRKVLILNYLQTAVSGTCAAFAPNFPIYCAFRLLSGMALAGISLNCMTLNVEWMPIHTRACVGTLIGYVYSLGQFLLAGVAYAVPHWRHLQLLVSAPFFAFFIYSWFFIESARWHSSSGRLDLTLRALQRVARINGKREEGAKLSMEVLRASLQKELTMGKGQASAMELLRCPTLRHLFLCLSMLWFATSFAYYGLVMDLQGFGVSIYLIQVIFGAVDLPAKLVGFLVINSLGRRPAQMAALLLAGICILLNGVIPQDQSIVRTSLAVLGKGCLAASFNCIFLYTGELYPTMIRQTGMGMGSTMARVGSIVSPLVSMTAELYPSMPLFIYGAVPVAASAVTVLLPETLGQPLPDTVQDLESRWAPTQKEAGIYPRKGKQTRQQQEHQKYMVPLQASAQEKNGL

Mus musculus [2] = assay: Anti-hyperuricemic activity against xanthine and potassium oxonate-induced acute hyperuricemia Kunming mouse model assessed as serum uric acid concentration at 10 mg/kg, po measured after 3 hrs (reference value: 846.22 uM); assay type: functional
[3] = molecular target: T2, Solute carrier family 22 member 12 (Homo sapiens, UniProt Q96S37); assay: Inhibition of URAT1 (unknown origin)-mediated 14C-uric acid uptake expressed in HEK293 cells using 14C-uric acid as substrate preincubated for 30 mins followed by substrate addition and measured after 15 mins by liquid scintillation counting analysis; assay type: cell-based
T2 sequence (Q96S37 whole entry): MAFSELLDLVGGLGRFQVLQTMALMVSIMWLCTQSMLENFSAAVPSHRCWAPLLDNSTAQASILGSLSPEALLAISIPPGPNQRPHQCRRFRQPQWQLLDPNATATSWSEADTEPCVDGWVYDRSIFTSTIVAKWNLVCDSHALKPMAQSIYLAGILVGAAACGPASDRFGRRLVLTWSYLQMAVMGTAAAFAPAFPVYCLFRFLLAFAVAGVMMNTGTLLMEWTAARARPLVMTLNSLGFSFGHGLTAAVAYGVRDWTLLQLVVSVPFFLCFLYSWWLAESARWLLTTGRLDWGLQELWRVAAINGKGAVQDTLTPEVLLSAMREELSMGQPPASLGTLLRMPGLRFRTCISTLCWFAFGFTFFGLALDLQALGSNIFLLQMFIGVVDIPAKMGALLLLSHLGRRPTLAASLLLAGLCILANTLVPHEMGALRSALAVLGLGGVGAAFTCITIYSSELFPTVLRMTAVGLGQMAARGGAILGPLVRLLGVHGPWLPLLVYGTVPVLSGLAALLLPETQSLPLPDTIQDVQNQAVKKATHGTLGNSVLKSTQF

[4] = Cmax in Sprague-Dawley rat at 5 mg/kg, iv measured upto 36 hrs by LC-MS/MS analysis; assay type: ADME, organism-based; set-up: time < 36 hrs, dose 5 mg/kg, route iv; settings: in vivo
[5] = Inhibition of URAT1 I481M mutant (unknown origin)-mediated 14C-uric acid uptake expressed in HEK293 cells using 14C-uric acid as substrate preincubated for 30 mins followed by substrate addition and measured after 15 mins by liquid scintillation counting analysis; assay type: cell-based; settings: Homo sapiens
[6] = Tmax in Sprague-Dawley rat at 5 mg/kg, po measured upto 36 hrs by LC-MS/MS analysis; assay type: ADME, organism-based; settings: in vivo
[7] = molecular target: T3, Broad substrate specificity ATP-binding cassette transporter ABCG2 (Homo sapiens, UniProt Q9UNQ0); assay: Inhibition of ABCG2 (unknown origin) expressed in HEK293 cells membrane vesicles assessed as inhibition of ATP-induced 14C-uric acid uptake preincubated for 15 mins followed by incubation with ATP and substrate for 5 mins by liquid scintillation counting analysis; assay type: toxicity, cell membranes, Membrane vesicle
T3 sequence (Q9UNQ0 whole entry): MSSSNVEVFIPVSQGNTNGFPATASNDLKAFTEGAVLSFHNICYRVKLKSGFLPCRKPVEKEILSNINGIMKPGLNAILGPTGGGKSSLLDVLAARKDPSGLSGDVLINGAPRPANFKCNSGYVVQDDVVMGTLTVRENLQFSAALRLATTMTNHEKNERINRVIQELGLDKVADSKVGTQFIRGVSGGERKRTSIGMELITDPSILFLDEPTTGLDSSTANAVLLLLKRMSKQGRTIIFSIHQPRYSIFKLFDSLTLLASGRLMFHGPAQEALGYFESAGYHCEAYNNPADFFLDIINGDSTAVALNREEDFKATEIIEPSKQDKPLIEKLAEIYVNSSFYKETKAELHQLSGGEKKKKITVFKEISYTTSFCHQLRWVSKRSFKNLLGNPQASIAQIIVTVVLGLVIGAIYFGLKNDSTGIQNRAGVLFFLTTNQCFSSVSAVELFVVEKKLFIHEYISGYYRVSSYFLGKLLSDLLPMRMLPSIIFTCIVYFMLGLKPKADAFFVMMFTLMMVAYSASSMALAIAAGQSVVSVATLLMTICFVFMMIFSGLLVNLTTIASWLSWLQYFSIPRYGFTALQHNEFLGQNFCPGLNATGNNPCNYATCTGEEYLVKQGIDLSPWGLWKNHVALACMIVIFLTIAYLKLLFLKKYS

Mus musculus [8] = assay: Anti-hyperuricemic activity against xanthine and potassium oxonate-induced acute hyperuricemia Kunming mouse model assessed as increase in urine uric acid concentration at 10 mg/kg, po measured for 24 hrs; assay type: functional
[9] = Tmax in Sprague-Dawley rat at 5 mg/kg, iv measured upto 36 hrs by LC-MS/MS analysis; assay type: ADME, organism-based; settings: in vivo
[10] = Cmax in Sprague-Dawley rat at 5 mg/kg, po measured upto 36 hrs by LC-MS/MS analysis; assay type: ADME, organism-based; set-up: time < 36 hrs, dose 5 mg/kg, route po; settings: in vivo
[11] = Half life in Sprague-Dawley rat at 5 mg/kg, po measured upto 36 hrs by LC-MS/MS analysis; assay type: ADME, organism-based; settings: in vivo
[12] = Half life in Sprague-Dawley rat at 5 mg/kg, iv measured upto 36 hrs by LC-MS/MS analysis; assay type: ADME, organism-based; settings: in vivo
[13] = AUC (0 to infinity) in Sprague-Dawley rat at 5 mg/kg, po by LC-MS/MS analysis; assay type: ADME, organism-based; set-up: time infinity, dose 5 mg/kg, route po; settings: in vivo
[14] = AUC (0 to infinity) in Sprague-Dawley rat at 5 mg/kg, iv by LC-MS/MS analysis; assay type: ADME, organism-based; set-up: time infinity, dose 5 mg/kg, route iv; settings: in vivo
[15] = MRT (0 to infinity) in Sprague-Dawley rat at 5 mg/kg, po by LC-MS/MS analysis; assay type: ADME, organism-based; settings: in vivo
[16] = MRT (0 to infinity) in Sprague-Dawley rat at 5 mg/kg, iv by LC-MS/MS analysis; assay type: ADME, organism-based; settings: in vivo
[17] = Oral bioavailability in Sprague-Dawley rat at 5 mg/kg measured upto 36 hrs by LC-MS/MS analysis; assay type: ADME, organism-based; settings: in vivo
[18] = Cytotoxicity against human HK-2 cells assessed as reduction in cell viability incubated for 24 hrs by MTT assay; assay type: toxicity, cell-based
[19] = Cytotoxicity against human HK-2 cells assessed as reduction in cell viability incubated for 48 hrs by MTT assay; assay type: toxicity, cell-based
[20] = Inhibition of URAT1 R487K mutant (unknown origin)-mediated 14C-uric acid uptake expressed in HEK293 cells using 14C-uric acid as substrate preincubated for 30 mins followed by substrate addition and measured after 15 mins by liquid scintillation counting analysis; assay type: cell-based; settings: Homo sapiens
[21] = Inhibition of URAT1 R477K mutant (unknown origin)-mediated 14C-uric acid uptake expressed in HEK293 cells using 14C-uric acid as substrate preincubated for 30 mins followed by substrate addition and measured after 15 mins by liquid scintillation counting analysis; assay type: cell-based; settings: Homo sapiens
[22] = Inhibition of URAT1 F365Y mutant (unknown origin)-mediated 14C-uric acid uptake expressed in HEK293 cells using 14C-uric acid as substrate preincubated for 30 mins followed by substrate addition and measured after 15 mins by liquid scintillation counting analysis; assay type: cell-based; settings: Homo sapiens
[23] = Inhibition of URAT1 F358Y mutant (unknown origin)-mediated 14C-uric acid uptake expressed in HEK293 cells using 14C-uric acid as substrate preincubated for 30 mins followed by substrate addition and measured after 15 mins by liquid scintillation counting analysis; assay type: cell-based; settings: Homo sapiens
[24] = Inhibition of URAT1 F241Y mutant (unknown origin)-mediated 14C-uric acid uptake expressed in HEK293 cells using 14C-uric acid as substrate preincubated for 30 mins followed by substrate addition and measured after 15 mins by liquid scintillation counting analysis; assay type: cell-based; settings: Homo sapiens
[25] = Inhibition of URAT1 S35N mutant (unknown origin)-mediated 14C-uric acid uptake expressed in HEK293 cells using 14C-uric acid as substrate preincubated for 30 mins followed by substrate addition and measured after 15 mins by liquid scintillation counting analysis; assay type: cell-based; settings: Homo sapiens

CC(C)(Sc1ccncc1-c1ccc(C#N)c2ccccc12)C(=O)[O-].[Na+]
IC50 [1]: 12.7 µM
Activity (Mus musculus [2]): 625.24 µM
IC50 [3]: 0.17 µM
Cmax [4]: 13.4 µg/mL
IC50 [5]: 0.94 µM
Tmax [6]: 0.46 h
IC50 [7]: 18.7 µM
Activity (Mus musculus [8]): 2371.02 µM
Tmax [9]: 5.4 min
Cmax [10]: 7.21 µg/mL
half-life [11]: 4.01 h
half-life [12]: 3.49 h
AUC(0-inf) [13]: 4.13 µg·h/mL
AUC(0-inf) [14]: 19.7 µg·h/mL
MRT inf [15]: 4.05 h
MRT inf [16]: 3.46 h
bioavailability [17]: 21.5%
IC50 at 24 h [18]: 197 µM
IC50 at 48 h [19]: 109 µM
IC50 [20]: 0.11 µM
IC50 [21]: 1.24 µM
IC50 [22]: 5.01 µM
IC50 [23]: 0.24 µM
IC50 [24]: 2.14 µM
IC50 [25]: 4.21 µM
